Consider 13 molecules from patent US20050009894A1 (Aventis Pharma S.A., priority 2001, published 2005).

In this test the target is T1, human KDR enzyme (Homo sapiens, UniProt P35968).
T1 construct: The cytoplasmic domain of human KDR enzyme is cloned in the form of a GST fusion; GST; made in house; host or cells: SF21 insect cells (baculovirus, pFastBac)
Description: Phosphorylation of the substrate PLCγ by the enzyme KDR in vitro (flashplate technique). The test is classed as biochemical. The conditions noted are these: Table VII, degrees of activity by IC50 range; read-out: Activity. The essentials:
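GST-fused human KDR cytoplasmic domain (Sf21 baculovirus, ~60% pure; 100 ng/well) phosphorylating 2 μg GST-PLCγ SH2-SH3 fragment in MOPS pH 7.2 with MgCl2/MnCl2, 1 h at 37° C. Started with γ33P-ATP plus cold ATP (2 μM in start solution); flashplate radioactivity. % inhibition vs no-compound control; IC50 from dose-response curves.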

T1 sequence (P35968 786-1356 limits assumed): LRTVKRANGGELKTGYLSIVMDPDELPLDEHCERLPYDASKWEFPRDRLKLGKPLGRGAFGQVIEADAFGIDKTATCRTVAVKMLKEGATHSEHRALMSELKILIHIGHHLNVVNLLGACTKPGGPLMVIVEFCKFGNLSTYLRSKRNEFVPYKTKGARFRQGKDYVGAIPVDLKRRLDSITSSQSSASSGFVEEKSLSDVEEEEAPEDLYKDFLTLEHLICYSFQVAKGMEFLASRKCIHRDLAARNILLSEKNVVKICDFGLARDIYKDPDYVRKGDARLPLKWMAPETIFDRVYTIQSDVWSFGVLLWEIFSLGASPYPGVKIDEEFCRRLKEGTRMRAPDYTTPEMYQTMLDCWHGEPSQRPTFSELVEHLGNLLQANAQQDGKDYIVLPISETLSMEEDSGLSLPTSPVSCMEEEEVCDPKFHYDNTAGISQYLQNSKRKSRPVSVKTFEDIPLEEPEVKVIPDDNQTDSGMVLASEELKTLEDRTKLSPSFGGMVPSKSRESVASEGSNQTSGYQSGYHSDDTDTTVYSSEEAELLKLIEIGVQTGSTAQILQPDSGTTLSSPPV

`COc1cccc(-c2ccc3nc(-c4[nH]nc5ccccc45)[nH]c3c2)c1` [Example 114, 3-[6-(3-Methoxy-phenyl)-1H-benzoimidazol-2-yl]-2H-indazole]: the IC50 lay within 0.3 to 3 µM.

In the case of `CC(=O)Nc1cccc(OCCCNC(=O)c2ccc3[nH]c(-c4n[nH]c5ccccc45)nc3c2)c1` [Example 55, 2-(1H-Indazol-3-yl)-1H-benzoimidazole-5-carboxylic acid [3-(3-acetylamino-phenoxy)-propyl]-amide], the IC50 was in the range of 0.3 to 3 µM.

Regarding `O=C(NCC1COc2ccccc2O1)c1ccc2[nH]c(-c3n[nH]c4ccccc34)nc2c1` (stereo not shown) [Example 65, 2-(1H-Indazol-3-yl)-1H-benzoimidazole-5-carboxylic acid (2,3-dihydro-benzo[1,4]dioxin-2-ylmethyl)-amide], the IC50 is 0.3 to 3 µM.

As for `CCOCCCNC(=O)c1cccc2nc(-c3n[nH]c4ccccc34)[nH]c12` [Example 74, 2-(1H-Indazol-3-yl)-3H-benzoimidazole-4-carboxylic acid (3-ethoxy-propyl)-amide], the IC50 was over 3 µM.

For the molecule `c1ccc(COc2cccc(-c3ccc4nc(-c5[nH]nc6ccccc56)[nH]c4c3)c2)cc1` [Example 143, 3-[6-(3-Benzyloxy-phenyl)-1H-benzoimidazol-2-yl]-2H-indazole], the IC50 was over 3 µM.

As to `Cc1nn(C)cc1CNC(=O)c1ccc2[nH]c(-c3n[nH]c4ccccc34)nc2c1` [Example 43, 2-(1H-Indazol-3-yl)-1H-benzoimidazole-5-carboxylic acid (1,3-dimethyl-1H-pyrazol-4-ylmethyl)-amide], the IC50 lay in the range of 0.3 to 3 µM.

As to `COc1coc(CNC(=O)c2ccc3[nH]c(-c4n[nH]c5ccccc45)nc3c2)cc1=O` [Example 146], the IC50 is 0.3 to 3 µM.

On to `Clc1ccc(/C=C/c2ccc3nc(-c4[nH]nc5ccccc45)[nH]c3c2)cc1` [Example 139, 3-{6-[2-(4-Chloro-phenyl)-vinyl]-1H benzoimidazol-2-yl}-2H-indazole], for which the IC50 is over 3 µM.

Turning to `O=C(NCc1ccc(Oc2ccccc2)cc1)c1ccc2[nH]c(-c3n[nH]c4ccccc34)nc2c1` [Example 48, 2-(1H-Indazol-3-yl)-1H-benzoimidazole-5-carboxylic acid 4-phenoxy-benzylamide], the IC50 was in the range of 0.3 to 3 µM.

For the molecule `NS(=O)(=O)c1ccc(CNC(=O)c2ccc3[nH]c(-c4n[nH]c5ccccc45)nc3c2)cc1` [Example 28, 2-(1H-Indazol-3-yl)-1H-benzoimidazole-5-carboxylic acid 4-(aminosulpnonyl)benzylamide], the IC50 is under 0.3 µM.

As for `c1ccc(-c2ccc(-c3ccc4nc(-c5[nH]nc6ccccc56)[nH]c4c3)cc2)cc1` [Example 106, 3-(6-Biphenyl-4-yl-1H-benzoimidazol-2-yl)-2H-indazole], the IC50 is over 3 µM.

On to `O=C(NCc1ccccc1F)c1ccc2[nH]c(-c3n[nH]c4ccccc34)nc2c1` [Example 154, 2-(1H-Indazol-3-yl)-1H-benzoimidazole-5-carboxylic acid 2-fluoro-benzylamide], for which the IC50 lay within 0.3 to 3 µM.

`O=C(Nc1ccccc1)c1cccc2nc(-c3n[nH]c4ccccc34)[nH]c12` [Example 94, 2-(1H-Indazol-3-yl)-3H-benzoimidazole-4-carboxylic acid phenylamide]: the IC50 is 0.3 to 3 µM.
